Results on six molecules are retold here after US10899822B2, “Compositions comprising D-amino acid peptides and methods of production and use thereof for inhibiting autoantibodies” (The Board of Regents of the University of Oklahoma, priority 2013, dated 2021).

“Also recorded” adds a separate entry of the source. Marks after values point to notes of the source that are not given here. Square brackets hold non-standard residues; d marks the D form. Ends that are not written are not given here. Peptide text beside a SMILES is read from it.

The nature of data set [1]: In vitro stability in synthetic gastric fluid (SGF, pepsin+HCL, pH 1.2) at 37° C., HPLC. The format is in vitro ADME. As to conditions: pH 1.2, 37° C. Here is the method: FIG. 13 graphically illustrates an in vitro stability analysis of the native and RID peptides in synthetic gastric fluid (SGF, pepsin+HCL, pH 1.2) at 37° C., as measured by HPLC. This Figure indicates the rate of proteolysis of the AT1R-ECL2 L-amino acid peptide and the AT1R-ECL2 RID peptide under these conditions.
In FIG. 13, the AT1R-ECL2 L-amino acid peptide and the AT1R-ECL2 RID peptide were each separately incubated in artificial gastric juice (SGF, pepsin+HCL, pH 1.2) at 37° C., and proteolysis of the peptides was measured by HPLC.

The nature of data set [2]: In vitro stability in human serum at 37° C., HPLC. The format is in vitro ADME.
The subject of data set [3] is β1AR-AAb. Kind of data set: Effective refractory period (ERP) in β1AR-immunized rabbits. The format is in vivo, rabbit. From the text:
FIG. 8 contains a flow chart depicting the protocol of the procedures performed in rabbits in a study to determine the effective refractory period (ERP) in atrial cells in rabbit-models with pre-immune, post-immune (β1AR-immunization), and post-immune plus β1AR-ECL2 RID peptide administration. The ERP inversely is one parameter of the susceptibility of the cardiac cells to induction of tachyarrhythmias.
(§1) The RID peptide was utilized in a study measuring the effective refractory period (ERP) in five New Zealand white rabbits. The procedures performed are outlined in the flow chart of FIG. 8. The ERP was measured during a pre-immune state and following immunization with β1AR ECL2 peptide to generate autoantibodies thereto, as described previously (Li et al. Am J Physiol Heart Circ Physiol. (2014) 306:H422-428). This was followed by administration of T4 (40 μg/kg), and an additive effect was observed on induced atrial tachyarrhythmias with the appearance of AF in a significant percentage of the T4 treated animals. […] In addition, the ERP in the rabbits was measured following administration of the β1AR-ECL2 RID peptide 90 minutes after T4.
FIG. 10 illustrates the mean ERP for an atrial catheter lead.

Data set [4] has as its system β1AR-AAb. Kind of data set: Heart rate and sustained arrhythmias in β1AR-AAb + T4 excess animals. The format is in vivo, rabbit. Here is the method:
as §1

In data set [5] the test system is AT1R activating autoantibodies. The experiment in a line: Isolated rat cremaster artery contractility induced by serum of AT1R 2nd ECL peptide immunized rabbits. More on the design: species or system rabbit. As to conditions: with ARB losartan. From the text:
FIG. 4, Panel A illustrates the dose related contractile effect of serum from an AT1R 2nd ECL peptide immunized rabbit on an isolated rat cremaster artery. The in vitro contractile changes were expressed as % change (decrease) in diameter with the increasing dosage concentration (dilution). These effects are blocked by the selective angiotensin II receptor blocker (ARB) losartan.
There was a significant increase of in vitro cremaster contractility (p<0.01) in the post-immune state compared to the pre-immune values.
FIG. 5 illustrates the effect of in vitro incubation of the RID peptide with serum containing AT1R activating autoantibodies (rabbit) on cremaster artery contractility. […] The same response was observed when the serum was pre-incubated with the L-amino acid target peptide (FIG. 5, Panel B).
Data provided herein were obtained with immunized rabbit serum containing autoantibodies that will stimulate AT1R receptors transfected into CHO cells. […] A bioassay for Angiotensin II-like activity using an isolated perfused cremaster artery in vitro has also been developed.

For the next data set, the system named is AT1R autoantibodies. Kind of data set: Binding of iodinated RID peptide to autoantibodies. As to conditions: iodine atom in the molecular structure. Here is the method: While therapeutic methods of using the RID peptides have been envisioned above, the scope of the presently disclosed inventive concepts also includes diagnostic uses of the RID peptides as well. The studies shown in FIGS. 12 and 13 were conducted at high concentrations (>250 μg/ml), and these concentrations are too high for study of absorption and use as part of a direct assay of serum binding to autoantibodies.

Data set [6] has as its system β1AR-AAb. The experiment in a line: cAMP production in β1AR-CHO cells stimulated by post-immune sera. The format is cell-based, rabbit.
For data set [7] the following is noted: rabbit, in vivo.

Regarding `C[C@H](N)C(=O)N[C@@H](Cc1ccccc1)C(=O)N[C@@H](Cc1c[nH]cn1)C(=O)N[C@@H](Cc1ccc(O)cc1)C(=O)N[C@@H](CCC(=O)O)C(=O)N[C@@H](CO)C(=O)N[C@@H](CCC(N)=O)C(=O)O` [AT1R-ECL2 L-amino acid peptide, AFHYESQ, reference compound] (H-AFHYESQ-OH; N-terminus and C-terminus assumed), in data set [1], the “rate of proteolysis compared with the RID peptide” value is “proteolyzed at a much faster rate”.

The share remaining is what is left of the initial amount, in per cent. As for `C[C@@H](NC(=O)[C@@H](Cc1ccccc1)NC(=O)[C@@H](Cc1c[nH]cn1)NC(=O)[C@@H](Cc1ccc(O)cc1)NC(=O)[C@@H](CCC(=O)O)NC(=O)[C@@H](CO)NC(=O)[C@H](N)CCC(N)=O)C(=O)O` [AT1R-ECL2 RID peptide, qseyhfa] (H-[dQ][dS][dE][dY][dH][dF][dA]-OH; N-terminus and C-terminus assumed), the peptide remaining intact in data set [2] (24 hours (data not shown)) came to 80%. Besides, the entries for the “integrity at two hours” value in data set [2] and in data set [2] (listed as AT2R-ECL2 RID peptide) were “resistance” and “remained intact”, respectively. Also, the “integrity for four hours” value in data set [1] (four hours) is on record as “remained intact”. The fraction remaining at 6 h in data set [1] (synthetic gastric fluid (SGF), six hours, read-out: peptide remaining) is 60%.

For `N[C@@H](Cc1cc(I)c(Oc2cc(I)c(O)c(I)c2)c(I)c1)C(=O)O` [T4, thyroxine, reference compound], the “effect on ERP” value with β1AR-AAb [3] (post-immune + T4 (40 μg/kg), P<0.01) is listed as “additive”. Moreover, in the data set with β1AR-AAb [4] (Post-immune + T4), the “#sustained arrhythmias/#induction attempts” value is reported as 20/20**^#, the Heart rate came to 280 ± 56 beats/min, the “Sustained AF” value is 2/20 and the “Sustained AFL” value was 0/20. Further, in the data set on β1AR-AAb [4] (Post-immune + T4), the “Sustained AT” value is on record as 2/20, the “Sustained JT” value is 2/20, the “Sustained ST” value is given as 11/20** and the “Sustained VT” value is 3/20.

For the molecule `CCCCc1nc(Cl)c(CO)n1Cc1ccc(-c2ccccc2-c2nn[nH]n2)cc1` [losartan], the “contractile effect of immunized rabbit serum on isolated rat cremaster artery (% decrease in diameter)” value in data set [5] is on record as “blocked”.

Turning to “AT1R-ECL2 RID peptide has been iodinated: AT1R-ECL2 RID peptide directly iodinated; iodine atom in the structure blocked binding ([dQ][dS][dE][dY][dH][dF][dA]; also: directly iodinated, place not given here)”, in the data set on AT1R autoantibodies, the binding to autoantibodies entry is on record as “blocked binding”.

Take dcckpdnycr [β1AR-ECL2 RID peptide]: the “effect on ERP (msec), right atrial lead” value in the data set on β1AR-AAb [3] (post-immune + RID peptide IV, over 90 minutes) is “dramatic rise in ERP; also recorded: reverses the shortening of the ERP”. Further, the “effect on ERP” value in the data set on β1AR-AAb [3] (post-immune + T4 + RID peptide, 90 minutes after T4) is reported as “reversed the β1AR-AAb effects but not the effect caused by T4”. Moreover, in the data set with β1AR-AAb [4] (Post-immune + T4 + β1AR-RID), the “#sustained arrhythmias/#induction attempts” value was 6/20*^++, the Heart rate is 241 ± 35**^##+ beats/min, the “Sustained AF” value was 0/20 and the “Sustained AFL” value is reported as 0/20. In the data set on β1AR-AAb [4] (Post-immune + T4 + β1AR-RID), the “Sustained AT” value is listed as 1/20, the “Sustained JT” value was 2/20, the “Sustained ST” value is listed as 3/20^+ and the “Sustained VT” value is given as 0/20. The “sera-induced β1AR activation of cAMP production in β1AR-transfected cells” value in the data set on β1AR-AAb [6] (sera pre-incubated with RID peptide, P<0.01) was “effectively blocked”. For the same molecule, the “ability of post-immune sera to stimulate cAMP in β1AR-CHO cells” value in the data set on β1AR-AAb [6] (sera taken 90 after IV injection of 1 mg/Kg BW) is “marked reduction of the ability to stimulate cAMP”. Further, the “anti-RID antibodies by ELISA (immunogenicity)” value in data set [7] is given as “failed to demonstrate anti-RID antibodies”.
